Data on 79 molecules can be found in publication PMC12040169 (PLOS Biology, 2025).

The nature of the data set: in vitro. As to conditions: human, hela cells, % viability.

Turning to `O=C(Nc1nc2ccccc2s1)NC1CC1` [CBK007542], the viability at 28.5 h, 10 µM stood at 102%.
Take `c1ccc(-c2nnc(Cn3cncn3)o2)cc1` [CBK011113]: the viability at 28.5 h, 10 µM was 88%.
`COc1ccc(C)cc1S(=O)(=O)N(C)CC(=O)Nc1cccc(C(C)=O)c1` [CBK268753]: the viability at 28.5 h, 10 µM turned out to be 102%.
`CN1CCN(Cc2nc3c([nH]2)c(=O)n(C)c(=O)n3C)CC1` [CBK269578]: the viability at 28.5 h, 10 µM worked out at 104%.
As for `CC(C)N1CCCC[C@H]2CN(C(=O)C3OCCc4ccccc43)C[C@H]21` (stereo partly shown) [CBK285511], the viability at 28.5 h, 10 µM was 104%.
Take `COc1cc(Cn2c(=O)[nH]c3ncc(-c4ccco4)nc32)cc(OC)c1OC` [CBK064461]: the viability at 28.5 h, 10 µM was 106%.
For `OCCN1CCN(c2nnc(-c3ccccc3)cc2-c2ccccc2)CC1` [CBK270045], the viability at 28.5 h, 10 µM worked out at 86.2%.
Take `O=C(Nc1ccc(F)cc1)c1[nH]c2ccccc2c1NS(=O)(=O)c1ccc(Cl)c(Cl)c1Cl` [CBK050091]: the viability at 28.5 h, 10 µM is 86.7%.
As to `Cc1nn(C)c(C)c1C(C)NS(=O)(=O)Cc1cccc(F)c1` (stereo not shown) [CBK281396], the viability at 28.5 h, 10 µM was determined as 107%.
`CC(=O)Nc1ccc(N2C(=O)c3ccc(S(=O)(=O)c4ccc5c(c4)C(=O)N(c4ccc(NC(C)=O)cc4)C5=O)cc3C2=O)cc1` [CBK262105]: the viability at 28.5 h, 10 µM turned out to be 77.8%.
In the case of `CCOC(=O)N1CCC(NS(=O)(=O)c2cc(Br)ccc2OC)CC1` [CBK045463], the viability at 28.5 h, 10 µM is 115%.
`Clc1ccccc1-c1nnc(Cn2c3ccc(Br)cc3c3nc4ccccc4nc32)o1` [CBK269091]: the viability at 28.5 h, 10 µM was 88.5%.
As to `CCCCNC(=O)NC1CCCC1` [CBK027084], the viability at 28.5 h, 10 µM was 101%.
Consider `Oc1c(-c2ccc(Cl)cc2)c2nc3ccccc3nc2c2ccccc12` [CBK261628], for which the viability at 28.5 h, 10 µM is 87.7%.
As for `Cc1ccc(C(C)C)c(OCc2ccc(C(=O)Nc3ccc(S(N)(=O)=O)cc3C)o2)c1` [CBK265833], the viability at 28.5 h, 10 µM was 96.3%.
For `CC(=O)Nc1ccc(CC(C(=O)O)c2ccccc2)cc1` (stereo not shown) [CBK286600], the viability at 28.5 h, 10 µM was determined as 98.8%.
Consider `COc1ccc(CCNC(=O)c2cc3c([nH]c2=O)CCC3)cc1C` [CBK281627], for which the viability at 28.5 h, 10 µM stood at 83.2%.
For `OC1(c2cccnc2)C2CCCC1CN(Cc1cccc(F)c1F)C2` (stereo not shown) [CBK285205], the viability at 28.5 h, 10 µM stood at 88.1%.
In the case of `CCN(CC)CCNc1cc(C)nc2c1C(=O)C(=O)C=C2N1CCCCC1` [CBK265049], the viability at 28.5 h, 10 µM came to 89.5%.
Under `Cc1nn(C)c(C(=O)Nc2sc3c(c2C#N)CCC(C)C3)c1Br` (stereo not shown) [CBK304212] stands 104%.
As to `O=C(NC1CCS(=O)(=O)C1)/C(=C\c1ccccc1)NC(=O)c1ccc([N+](=O)[O-])cc1` (stereo not shown) [CBK261034], the viability at 28.5 h, 10 µM came out at 106%.
`COc1ccc(OC)c(CN(C(=O)c2oc3ccc(F)cc3c2C)c2cnn(C)c2)c1` [CBK298278]: the viability at 28.5 h, 10 µM was 89.1%.
Turning to `O=C(O)CCn1c(=O)cc(C(F)F)c2cn(Cc3ccccc3)nc21` [CBK286881], the viability at 28.5 h, 10 µM is 91.3%.
In the case of `COc1ccc(OC)c(NC(=O)CSc2nnc(-c3ccc(N)cc3)n2C)c1` [CBK265872], the viability at 28.5 h, 10 µM was 106%.
As for `Cc1cc(=O)[nH]c(SCCC(=O)O)n1` [CBK268242], the viability at 28.5 h, 10 µM worked out at 106%.
For the molecule `Cc1ccc(C(=O)NCCNc2cnccn2)cc1S(C)(=O)=O` [CBK246280], the viability at 28.5 h, 10 µM came out at 103%.
Take `CC(=O)Nc1cnn(-c2ccc(C(=O)N3CCCCC3c3nc4ccccc4[nH]3)cc2)c1` (stereo not shown) [CBK291109]: the viability at 28.5 h, 10 µM is 83.3%.
Consider `COCC(=O)N[C@H]1C[C@H]2C(=O)Nc3ccc(-c4cccs4)cc3C(=O)N2C1` [CBK289358], for which the viability at 28.5 h, 10 µM was 110%.
As to `Cc1ccccc1C(NC(=O)C1CCN(C(=O)N(C)c2ccccc2)CC1)c1ccccn1` (stereo not shown) [CBK059721], the viability at 28.5 h, 10 µM turned out to be 88.7%.
To `CN(C)CCCO/N=C(\c1ccccc1)c1ccncc1` [CBK261464G] belongs 95.3%.
For the molecule `O=C(C[C@@H]1CCNC[C@@H]1Cc1cc(-c2ccccc2)on1)N1CCN(c2ccccn2)CC1` [CBK289150], the viability at 28.5 h, 10 µM came to 81%.
For `O=C(O)CSc1nc2ccccc2[nH]1` [CBK225127], the viability at 28.5 h, 10 µM stood at 95.3%.
In the case of `O=C(Cc1cccc(F)c1)N1CCOCC1` [CBK058928], the viability at 28.5 h, 10 µM turned out to be 83.9%.
On to `COc1ccc(CNC(=O)[C@H]2C=CCN2C(=O)c2ccco2)cc1` [CBK284321], for which the viability at 28.5 h, 10 µM was found to be 71.9%.
Under `COc1cccc(CN2CCOC3(CCN(C(=O)OCc4ccccc4)CC3)C2)c1` [CBK161098T] stands 95.4%.
In the case of `O=C(NC(Cc1ccsc1)c1cccnc1)C1CCOCC1` (stereo not shown) [CBK285110], the viability at 28.5 h, 10 µM worked out at 92.9%.
For the molecule `COc1ccccc1C1C(C(=O)c2sc(C)nc2C)=C(O)C(=O)N1CCCN1CCOCC1` (stereo not shown) [CBK266592], the viability at 28.5 h, 10 µM turned out to be 113%.
To `Cc1ccc(CN(CCCn2ccnc2)Cc2ccncc2)o1` [CBK283101] belongs 108%; to `CC1CCCN(C(=O)CN2C3CCC2CC(O)(c2ccco2)C3)C1` (stereo not shown) [CBK284095], 98.8%.
As for `O=C(Nc1cccc(N2CCNCC2)c1)c1ccnc2ccccc12` [CBK029416T], the viability at 28.5 h, 10 µM was found to be 95.5%.
Regarding `COc1ccc2c(-c3ccccc3)cc(=O)n(CCS(=O)(=O)Oc3ccccc3)c2c1` [CBK296621], the viability at 28.5 h, 10 µM worked out at 84.6%.
Take `Nc1ncc(-c2ccccc2)nc1NC1CCOCC1` [CBK063748]: the viability at 28.5 h, 10 µM was 97.3%.
For the molecule `COCC(C)NC(=O)CCn1ccc2ccncc21` (stereo not shown) [CBK285172], the viability at 28.5 h, 10 µM amounted to 93.8%.
Regarding `COc1ccccc1N1CCN(C(=O)c2snnc2C)CC1` [CBK057792], the viability at 28.5 h, 10 µM was found to be 92.8%.
`O=C(NCCO)/C(=C\c1ccccc1)NC(=O)c1ccc(I)cc1` [CBK265162]: the viability at 28.5 h, 10 µM was 89.2%.
On to `CCOc1cc(/C=N/O)c(Br)cc1O` [CBK288359], for which the viability at 28.5 h, 10 µM came to 87.4%.
For `CC(C)[C@@H](CO)Nc1cc(-c2cccc(Br)c2)nc2ccnn12` [CBK037117], the viability at 28.5 h, 10 µM amounted to 93.9%.
As for `CC(=O)Nc1cccc(C(=O)OCC(=O)N2CCCC2)c1` [CBK306395], the viability at 28.5 h, 10 µM is 91.6%.
Regarding `CCc1cn(C[C@H](NC(=O)c2ccco2)C(=O)O)c(=O)[nH]c1=O` [CBK289670], the viability at 28.5 h, 10 µM was 86%.
To `O=C(Cn1c(-c2cncs2)nc2ccccc21)NCc1ccc2c(c1)OCO2` [CBK264699] belongs 95.5%; to `O=C(CN1C(=O)S/C(=C\c2ccccc2OCc2ccccc2)C1=O)c1ccc(Cl)cc1` [CBK264628], 92.5%.
To `Cn1ccnc1C1(O)CCN(C(=O)Nc2ccccc2Cl)CC1` [CBK282278] belongs 89.3%; to `Nn1c(=O)c2ccccc2n2c(SCC(=O)N(c3ccccc3)c3ccccc3)nnc12` [CBK266621], 99.3%.
Regarding `S=C(NCc1ccco1)NCc1cn(-c2ccccc2)nc1-c1ccccc1` [CBK266895], the viability at 28.5 h, 10 µM was found to be 112%.
For `Cc1c(C(=O)O)sc2c1c(=O)n(Cc1ccccc1)c(=O)n2CCN(C)C` [CBK286590], the viability at 28.5 h, 10 µM worked out at 95.3%.
Under `Cc1cccc(CN2CCN(c3ccccc3C(O)c3nccn3C)CC2)c1` (stereo not shown) [CBK286441] stands 88.5%; under `Cc1ccc(NC(=O)CCc2c(C)nc(N3CCOCC3)[nH]c2=O)cc1` [CBK304985], 98.2%; under `CC(Oc1ccc2c(c1)OCO2)C(=O)N1CCc2sccc2C1c1ccccc1` (stereo not shown) [CBK285549], 91.9%.
`CN1CC(CO)Oc2ccccc21` (stereo not shown) [CBK003872C]: the viability at 28.5 h, 10 µM came to 104%.
Under `Cc1ccc2cc(CN(Cc3ccco3)C(=O)C3CCCO3)c(O)nc2c1` (stereo not shown) [CBK269300] stands 103%; under `COc1cc(-c2nnc(CSc3nc4sc(C(=O)O)c(C)c4c(=O)[nH]3)o2)cc(OC)c1OC` [CBK296973], 91%; under `FC(F)CN1CCN(Cc2ccc(Oc3cnccn3)cc2)CC1` [CBK306399], 101%.
Take `OCCn1ncc2c(NCc3ccc(-n4cccn4)nc3)ncnc21` [CBK306326]: the viability at 28.5 h, 10 µM was 87.8%.
Take `COc1cccc2sc(Nc3nc(C)c(C(C)=O)s3)nc12` [CBK287471]: the viability at 28.5 h, 10 µM worked out at 109%.
For `CC1=C[C@@H](CNC(=O)c2ccccn2)[C@H](C(C)C)C[C@H]1CC(=O)O` [CBK289212], the viability at 28.5 h, 10 µM stood at 87.5%.
For `CC(=O)Nc1cccc(-c2cc(N3CCN(C(=O)c4ccco4)CC3)ncn2)c1` [CBK036959], the viability at 28.5 h, 10 µM was 93.7%.
Regarding `O=C(NNC(=S)NCCc1ccccc1)c1ccc(Br)o1` [CBK266818], the viability at 28.5 h, 10 µM came to 96.3%.
With `CC(CC(=O)O)CC(=O)NC1CCN(Cc2ccccc2)CC1` (stereo not shown) [CBK287042], the viability at 28.5 h, 10 µM stood at 91.4%.
Under `CN1C(=O)COc2ccccc2C/C=C/C[C@@H]2[C@H]1CCCN2C(=O)Cn1ccc(=O)[nH]c1=O` [CBK292093] stands 102%; under `COc1ccccc1Nc1nc(C)cc(C)c1C(N)=O` [CBK287960], 82.7%; under `Cc1nc(C(F)(F)F)ccc1C(=O)NCC(C)(C)N1CCCCC1` [CBK281864], 98%.
Regarding `Cc1ccnc(NS(=O)(=O)c2ccc(NS(=O)(=O)c3ccc(F)cc3)cc2)n1` [CBK051024], the viability at 28.5 h, 10 µM was 102%.
Under `CCCCN(C)c1c(C)nc2c(OCc3ccc(S(=O)(=O)N(C)C)cc3)cccn12` [CBK147189] stands 96.2%; under `CCCC(=O)Nc1ccc(OCc2ncc(C(C)C)o2)c(C(C)=O)c1` [CBK305516], 100%.
Turning to `Cc1ccc(NS(=O)(=O)c2c(Br)sc3ccnc(N4CCN(C)CC4)c23)cc1` [CBK034654C], the viability at 28.5 h, 10 µM is 103%.
With `CCSc1ccc(-c2cc(N(C)c3cccc(C)c3)n3nccc3n2)cc1` [CBK037115], the viability at 28.5 h, 10 µM was 100%.
With `Sc1nncn1NCc1cc(Cl)ccc1OCc1ccccc1` [CBK265752], the viability at 28.5 h, 10 µM worked out at 88.9%.
For the molecule `COCCN1C(=O)c2ccc(C(=O)Nc3ccc(O)c(C(=O)O)c3)cc2C1=O` [CBK268344], the viability at 28.5 h, 10 µM came out at 102%.
With `CSCCCNC(=O)N1CCCC(CO)C1` (stereo not shown) [CBK156031], the viability at 28.5 h, 10 µM was determined as 106%.
